Assay [1] relates to Staphylococcus aureus MRQR. Put plainly: MIC, standard in-vitro test, agar dilution. Format: cell-based. The note with it: Staphylococcus aureus MRQR (methicillin resistant and quinolone resistant), 10^4 CFU/spot, 37° C., 24 hours. The method, then:
(§1) The following results were obtained on a standard in-vitro test system The activity is described in terms of the minimum inhibitory concentration (MIC) determined by the agar-dilution technique with an inoculum size of 10^4 CFU/spot. Typically, compounds are active in the range 0.01 to 256 μg/ml.
(§2) Staphylococci were tested on agar, using an inoculum of 10^4 CFU/spot and an incubation temperature of 37° C. for 24 hours—standard test conditions for the expression of methicillin resistance.
(Agar dilution tests growth on a series of plates holding different concentrations.)

Assay [2] deals with Staphylococcus aureus MSQS. Put plainly: MIC, standard in-vitro test, agar dilution. The conditions noted are these: Staphylococcus aureus MSQS (methicillin sensitive and quinolone sensitive), 10^4 CFU/spot, 37° C., 24 hours. Format: cell-based. The protocol: as §1, §2
Assay [3] relates to Enterococcus faecium. The assay is described as follows: MIC, standard in-vitro test, agar with 5% horse blood. Format: cell-based. The note with it: agar with 5% defibrinated horse blood, 48 hours. The protocol: as §1
(§3) Streptococci and enterococci were tested on agar supplemented with 5% defibrinated horse blood, an inoculum of 10^4 CFU/spot and an incubation temperature of 37° C. in an atmosphere of 5% carbon dioxide for 48 hours—blood is required for the growth of some of the test organisms. Fastidious Gram negative organisms were tested in Mueller-Hinton broth, supplemented with hemin and NAD, grown aerobically for 24 hours at 37° C., and with an innoculum of 5×10^4 CFU/well

Assay [4] has as its system Linezolid Resistant Streptococcus pneumoniae. Described as above. Format: cell-based. The conditions noted are these: agar with 5% defibrinated horse blood, 48 hours. The protocol: as §1, §3
Assay [5] has as its system Streptococcus pneumoniae. The assay is described as above. The note with it: agar with 5% defibrinated horse blood, 10^4 CFU/spot, 37° C., 5% carbon dioxide, 48 hours. Format: cell-based. The protocol: as §1, §3
The test system of assay [6] is Haemophilus influenzae. The assay is described as follows: MIC, fastidious Gram negative organisms in Mueller-Hinton broth. Format: cell-based. The note with it: Mueller-Hinton broth with hemin and NAD, 24 hours, 37° C., 5×10^4 CFU/well. The method, then: as §1, §3
Assay [7] has as its system Moraxella catarrhalis. The assay is described as above. The note with it: Mueller-Hinton broth with hemin and NAD, 24 hours, 37° C., 5×10^4 CFU/well. Format: cell-based. The protocol:
as §1, §3

For assay [8], the target named is T1, MAO-A (Homo sapiens, UniProt P21397).
T1 sequence (P21397 1-527): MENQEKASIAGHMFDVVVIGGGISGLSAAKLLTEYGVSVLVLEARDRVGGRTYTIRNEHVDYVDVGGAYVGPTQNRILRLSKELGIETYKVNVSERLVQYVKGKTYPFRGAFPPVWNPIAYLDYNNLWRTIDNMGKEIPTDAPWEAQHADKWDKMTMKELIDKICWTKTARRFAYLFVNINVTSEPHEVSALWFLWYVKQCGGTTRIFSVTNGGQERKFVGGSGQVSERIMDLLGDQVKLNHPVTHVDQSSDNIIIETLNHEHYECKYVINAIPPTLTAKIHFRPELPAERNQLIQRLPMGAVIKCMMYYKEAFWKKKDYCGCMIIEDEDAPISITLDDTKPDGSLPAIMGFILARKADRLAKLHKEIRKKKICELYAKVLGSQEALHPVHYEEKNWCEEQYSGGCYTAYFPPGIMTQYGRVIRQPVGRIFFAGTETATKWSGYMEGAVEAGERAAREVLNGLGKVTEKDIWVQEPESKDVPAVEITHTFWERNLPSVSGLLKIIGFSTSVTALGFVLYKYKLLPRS
The assay is described as follows: MAO-A inhibition (Ki). Format: biochemical. The note with it: * = approximate values.

Results on two compounds are retold here after US20060116400A1, “Oxazolidinone and/or isoxazoline derivatives as antibacterial agents” (AstraZeneca AB, priority 2002, published 2006).

≈ marks a conversion by molar mass, not a printed value.

With `O=C1O[C@@H](Cn2ccnn2)CN1c1ccc(-c2ccc(C3=NOC(CO)(CO)C3)cc2)c(F)c1` [Example 2, (5R)-3-{4′-(5,5-bis(Hydroxymethyl)-4,5-dihydroisoxazol-3-yl]-2-fluoro-1,1′-biphenyl-4-yl}-5-(1H-1,2,3-triazol-1-ylmethyl)-1,3-oxazolidin-2-one], the MIC was found to be 0.5 µg/mL (≈ 1.07 µM) in assay [1]; 0.5 µg/mL (≈ 1.07 µM) in assay [2]; 0.25 µg/mL (≈ 0.535 µM) in assay [3]; 1 µg/mL (≈ 2.14 µM) in assay [4]; 0.13 µg/mL (≈ 0.278 µM) in assay [5]; 4 µg/mL (≈ 8.56 µM) in assay [6]. The same compound returned an MIC in assay [7] of 0.5 µg/mL (≈ 1.07 µM).

By Ki is commonly meant a measure of affinity in units of concentration, obtained from inhibition or displacement. Read a low Ki as tighter binding. For `O=C1O[C@@H](Cn2ccnn2)CN1c1ccc(-c2ccc(C3=NO[C@@H]([C@@H](O)CO)C3)nc2)c(F)c1` [Example 54, (5R)-3-[4-(6-{(5R)S-5-[(1S)-1,2-Dihydroxyethyl]-4,5-dihydroisoxazol-3-yl}pyridin-3-yl)-3-fluorophenyl]-5-(1H-1,2,3-triazol-1-ylmethyl)-1,3-oxazolidin-2-one], the affinity in assay [8] corresponds to a Ki of 8 µM.
